Legend:
[1] = target: T1, PPARα (Homo sapiens, UniProt Q07869); settings: cited from earlier work
T1 sequence (Q07869 1-468): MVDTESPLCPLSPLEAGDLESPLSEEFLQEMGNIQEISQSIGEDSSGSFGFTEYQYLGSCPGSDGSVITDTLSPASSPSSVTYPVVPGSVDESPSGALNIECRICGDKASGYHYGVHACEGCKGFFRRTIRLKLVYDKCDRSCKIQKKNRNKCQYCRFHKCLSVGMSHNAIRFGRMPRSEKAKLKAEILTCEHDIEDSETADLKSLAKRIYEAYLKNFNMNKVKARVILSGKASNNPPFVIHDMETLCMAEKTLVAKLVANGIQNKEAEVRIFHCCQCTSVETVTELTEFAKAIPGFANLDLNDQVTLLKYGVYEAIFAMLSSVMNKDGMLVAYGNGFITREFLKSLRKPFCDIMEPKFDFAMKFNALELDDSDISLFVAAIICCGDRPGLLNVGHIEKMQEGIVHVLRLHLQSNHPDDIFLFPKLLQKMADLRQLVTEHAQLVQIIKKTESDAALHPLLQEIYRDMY

[2] = test system: RXR (retinoid X receptor); settings: cited from earlier work
[3] = test system: hepatocytes; settings: EP 1177789; cited from earlier work
[4] = test system: mouse teratogenesis models; settings: mouse teratogenesis models (Arnhold et al., 2002); cited from earlier work
[5] = test system: 3T3-L1 cells; settings: 3T3-L1 cells (Schluter et al., 2002); cited from earlier work
[6] = cited from earlier work
[7] = test system: humans; settings: 10% concentration (Kligman, 1966; Kligman & Epstein, 1975); cited from earlier work
[8] = test system: healthy mice; assay: Phytol treatment healthy mice, serum cholesterol and LDL-cholesterol (Example 6); assay type: in vivo, mouse; settings: 1 weight percentage phytol in the food, after thirty days, vs untreated mice
Method: FIG. 6 is a graph comparing the cholesterol and LDL-Cholesterol lowering effect of phytol in mice. The mice were treated with oral administration of phytol at 1% weight evenly distributed in powdered chow.
Cholesterol and LDL-Cholesterol lowering effect after oral administration of phytol was validated in serum from healthy mice treated with phytol. Phytol (FIG. 6; black bars) was administrated to mice at 1 weight percentage phytol mixed in the food for thirty days. Analysis was made in comparison with control (FIG. 6; white bars) untreated mice.

[9] = test system: rats; settings: cited from earlier work
[10] = test system: rabbits; settings: cited from earlier work
[11] = test system: healthy rats; assay: Phytol treatment healthy rats, serum cholesterol and LDL-cholesterol, thirty days (Example 5); assay type: in vivo, rat; settings: 1 weight percentage phytol in the food
Method: FIG. 5 is a graph comparing the cholesterol and LDL-Cholesterol lowering effect of phytol in rats. The rats were treated with oral administration of phytol at 1% weight evenly distributed in powdered chow.
Cholesterol and LDL-Cholesterol lowering effect after oral administration of phytol was validated in serum from healthy rats treated with phytol. Phytol (FIG. 5; black bars) was administrated to rats at 1 weight percentage phytol mixed in the food for thirty days. Analysis was made in comparison with control (FIG. 5; white bars) untreated rats.

[12] = one Refsum's disease patient, 72 mg tritium labelled phytol orally after overnight fasting (Kahlke & Wagener, 1966); cited from earlier work
[13] = test system: rats; settings: rats fed 0.5% phytol in the diet for 15 months (Steinberg et al., 1966); cited from earlier work
[14] = test system: healthy rats; assay: Phytol treatment healthy rats, serum triglycerides and cholesterol (Example 1); assay type: in vivo, rat; settings: 1 weight percentage phytol mixed in the food, after 4 days, vs untreated rats
Method: FIG. 1 is a graph comparing the triglyceride and cholesterol lowering effect of phytol in rats. The rats were treated with oral administration of phytol at 125 mg daily.
Triglyceride and cholesterol lowering effect after oral administration of phytol was validated in serum from healthy rats treated with phytol. Phytol (FIG. 1; black bars) was administrated to rats at 1 weight percentage phytol mixed in the food. Analysis was made in comparison with control (FIG. 1; white bars) untreated rats.

[15] = cited from earlier work; remark: listed apart in the source
[16] = test system: healthy pigs; assay: Phytol treatment healthy pigs, increasing dose, serum triglycerides (Example 3); assay type: in vivo, pig; settings: vs corn oil control
Method: FIG. 3 is a graph showing the effect of increased dose of phytol in pigs. The pigs were treated with oral administration of 1.25; 2.5; 5 and 10 g phytol daily for two weeks, respectively.
Triglyceride lowering effect after oral administration of phytol was validated in serum from healthy pigs treated with phytol. Phytol (FIG. 3.; black circles) was administrated to pigs at 1.25, 2.5, 5 and 10 g phytol daily. Analysis was made in comparison with control (FIG. 3.; open circles) pigs given corn oil as control.

[17] = test system: healthy pigs; assay: Phytol treatment healthy pigs, serum triglycerides and cholesterol (Example 2); assay type: in vivo, pig; settings: 10 g phytol daily mixed in the food, after 1 wk, vs untreated pigs
Method: FIG. 2 is a graph comparing the triglyceride and cholesterol lowering effect of phytol in pigs. The pigs were treated with oral administration of phytol at 10 g daily.
Triglyceride and cholesterol lowering effect after oral administration of phytol was validated in serum from healthy pigs treated with phytol. Phytol (FIG. 2.; black bars) was administrated to pigs at 10 g phytol daily mixed in the food. Analysis was made in comparison with control (FIG. 2.; white bars) untreated pigs.

[18] = test system: healthy rats; assay: Phytol treatment healthy rats, 400 mg every second day, serum cholesterol and LDL-cholesterol (Example 7); assay type: in vivo, rat; settings: 400 mg phytol every second day, after three weeks, vs untreated rats
Method: FIG. 7 is a graph comparing the cholesterol and LDL-Cholesterol lowering effect of Phytol in rats. The rats were treated with oral administration of phytol at 400 mg every second day for three weeks.
Cholesterol and LDL-Cholesterol lowering effect after oral administration of phytol was validated in serum from healthy rats treated with phytol. Phytol (FIG. 7; black bars) was administrated to rats at 400 mg phytol administered every second day for three weeks. Analysis was made in comparison with control (FIG. 7; white bars) untreated rats.

[19] = test system: adult mice; settings: cited from earlier work
[20] = test system: obese (ob/ob) mice; assay: Phytol treatment obese (ob/ob) mice, serum cholesterol (Example 4); assay type: in vivo, mouse; settings: 0.75 weight percentage phytol mixed in the food, during 5 weeks, vs untreated mice, p<0.001
Method: FIG. 4 is a graph comparing the cholesterol lowering effect of phytol in obese ob/ob mice. The mice were treated with oral administration of phytol 0.75% weight evenly distributed in powdered chow.
Cholesterol lowering effect after oral administration of phytol was validated in serum from obese (ob/ob) mice treated with phytol. Phytol (FIG. 4; black circles) was administrated to the mice at 0.75 weight percentage phytol mixed in the food. Analysis was made in comparison with control (FIG. 4; open circles) untreated mice.

[21] = phytol given as chlorophyll; cited from earlier work
[22] = after ten days, vs untreated rats, p<0.0001
[23] = after three weeks of phytol feeding

CC(C)CCCC(C)CCCC(C)CCCC(C)CC(=O)O (stereo not drawn) [phytanic acid]
activation of PPARα in vitro (postulated) [1]: activate
RXR (retinoid X receptor) activator ([2]; Kitareewan et al., 1996): activator
activation of RXR in vitro (postulated) ([2]; in vitro): activate
transcription of the genes for glucose transporters and glucokinase [3]: increase and stimulate the transcription
uptake of glucose in hepatocytes [3]: increased uptake of glucose
vitamin A (retinol) induced teratogenic effects [4]: able to prevent
AP2 mRNA [5]: activates AP2 mRNA

C/C(=C\CO)CCCC(C)CCCC(C)CCCC(C)C (stereo not drawn) [phytol, 3,7,11,15-Tetramethyl-hexadec-2-en-1-ol]
serum and liver values of accumulated phytol after phytol is subtracted from the food ([6]; after withdrawal of dietary phytol): drops rapidly
distribution to the livers ([6]; at the 1% level in the food): no phytol was distributed to the livers
accumulation in tissues ([6]; dietary phytol at doses 1-5% in the food, rat, mouse, rabbit and chinchillas (Steinberg et al., 1966)): accumulation in both liver and serum
irritation [7]: no irritation
serum LDL-cholesterol ([8]; p<0.01): significantly reduced
serum cholesterol ([8]; p=0.05): significantly reduced
acute oral LD50 [9]: exceed 5 g/kg
acute dermal LD50 [10]: exceed 5 g/kg
serum LDL-cholesterol [11, 22]: significantly reduced
serum cholesterol [11, 22]: significantly reduced
serum LDL-cholesterol ([11]; after thirty days): even more reduced
principal carriers of phytol in plasma [12]: Plasma cholesterol esters and triglycerides
growth inhibition or toxicity [13]: No evidence of growth inhibition or toxicity
serum levels of cholesterol ([14]; p<0.001): significantly reduced
serum levels of triglycerides ([14]; p<0.05): significantly reduced
vitamin A (retinol) induced teratogenic effects [4]: able to prevent
capacity to absorb into the intestinal lymphatic ([15]; rat, oral administration (Baxter & Steinberg, 1967)): ≤ 0.2 g phytol/kg bodyweight
time of transportation into the intestinal lymphatic after administration ([15]; rat, oral administration): ≤ 20 h
absorption when mixed with bile salts prior to administration ([15]; rat, oral, phytol mixed with bile salts): absorption increases
orally administered phytol absorbed ([15]; rat, oral): More than 50%
share of absorbed phytol absorbed via the intestinal lymphatics ([15]; rat, oral): more than 70%
absorption and degradation ([15]; rats fed 5% phytol (Mize et al., 1966)): capacity to rapidly absorb and degrade phytol
absorbed, of administered dose ([15]; rats, oral): 30-66 % of administered dose
serum levels of triglycerides ([16]; 2.5 g phytol per day oral, p<0.05): significantly reduced
serum levels of triglycerides ([16]; 5 g phytol per day oral, p<0.01): significantly reduced
serum levels of triglycerides ([16]; 10 g phytol per day oral, p<0.001): significantly reduced
serum levels of triglycerides ([17]; p<0.01): significantly reduced
serum levels of cholesterol ([17]; p<0.05): significantly reduced
serum LDL-cholesterol ([18]; p<0.001): significantly reduced
serum cholesterol ([18]; p<0.05): significantly reduced
serum cholesterol levels [19, 23]: remained unaffected
serum triglyceride levels [19, 23]: decreased
hepatic peroxisomes ([19]; enhanced supply of phytol in the diet (Van den Branden et al., 1986)): proliferation of hepatic peroxisomes
serum levels of cholesterol [20]: significantly reduced

chlorophyll
absorption of phytol compared to when given as pure phytol [21]: much lower

Source: US20110015278A1, “PHYTOL AS A CHOLESTEROL LOWERING AGENT” (priority 2008, published 2011)
